Experimental data from patent US20250387352A1 (SpringWorks Therapeutics, Inc., priority 2024, published 2025).

Tests used:
[1] = Metabolism and excretion of mirdametinib (radioactivity recovery); type: in vivo
[2] = Clinical pharmacokinetic parameters of mirdametinib (Table A); settings: human, in vivo
[3] = tested on: NF1-associated plexiform neurofibromas (PNs); assay: Phase 2b trial of mirdametinib in adult and pediatric patients with NF1-associated inoperable plexiform neurofibromas: efficacy by BICR volumetric MRI (REiNS); type: in vivo, human
Protocol: Study treatment was administered orally at a twice daily (BID) dose specified in the table below. Dosing was on a 28-day Cycle (4-week course) with a 3 week on/1 week off schedule. The treatment period will last for up to 24 Cycles followed by a 30-day Safety Follow-Up period.
A partial response was defined as PN decrease ≥20% compared to baseline using centrally read MRI volumetric analysis.
The major efficacy outcome measure was confirmed objective response rate (ORR), defined as the percentage of patients with complete response (disappearance of the target PN) or confirmed partial response (≥20% reduction in PN volume confirmed at a subsequent tumor assessment within 2-6 months during the 24-cycle treatment phase). Responses were assessed by blinded independent central review (BICR) using volumetric magnetic resonance imaging (MRI) analysis per Response Evaluation in Neurofibromatosis and Schwannomatosis (REINS) criteria. A secondary efficacy objective was to determine the duration of response for patients who achieved a confirmed objective response.

Excretion: Radioactivity ([1]; In feces): In feces: 27%
Excretion: Radioactivity ([1]; In urine): In urine: 68%
Excretion: Unchanged mirdametinib ([1]; In urine): In urine: 0.7%
Excretion: Unchanged mirdametinib ([1]; In urine and feces): In urine and feces: 9%
Time to steady-state [2]: Approximately 6 days
SMILES: O=C(NOC[C@H](O)CO)c1ccc(F)c(F)c1Nc1ccc(I)cc1F (single isomer, unassigned) [mirdametinib]
median time to onset of response ([3]; adult cohort): 7.8 months
ORR also considering confirmed objective response after cycle 24 ([3]; adults): 45%
median time to onset of response ([3]; pediatric cohort): 7.9 months
ORR also considering confirmed objective response after cycle 24 ([3]; pediatric patients): 54%
